Where a SMILES comes first, the peptide text is derived from it. Bridges are numbered along the chain shown (N, C = ends). [ ]: non-standard residue; d: D form. 2Abz = Nc1ccccc1C(=O)O; Dap = NC[C@H](N)C(=O)O

For one series, the target named is T1, rat MOR (Rattus norvegicus, UniProt P33535).
T1 construct: expressed in transfected cells
The experiment in a line: Opioid receptor radioligand binding assay ([3H]diprenorphine), MOR. The following applies: CHO cell membranes, read-out: binding affinity (Ki) at MOR. The procedure:
CycloAnt is a lariat peptide that acts in vivo as a bifunctional MOR agonist and DOR antagonist, which was confirmed in our previous study using opioid receptor individually knock-out (OP KO) mice. In the current study, the binding affinities of CycloAnt to the three opioid receptors are determined using cell-based radioligand opioid receptor binding assays. […] At the KOR, CycloAnt at 1 μM inhibits 6% and at 10 μM inhibits 26% of [^3H]diprenorphine binding.
Opioid receptor radioligand binding assay. Membranes of CHO cells stably expressing the rat MOR, mouse DOR, or human KOR were used in the experiments. [^3H]diprenorphine (PerkinElmer, Waltham, MA, at the time of experiment calculated to have specific activity 35 Ci/mmol) was used as the radioligand for the MOR, DOR, and KOR. Competition inhibition of [^3H]diprenorphine (0.3–0.4 nM) binding to the MOR or DOR was conducted in 50 mM Tris-HCl buffer (pH 7.4) with an adequate number of cell membranes for each receptor and […] of CycloAnt. […] Binding reactions were terminated by rapid filtration under vacuum over GF/B filters presoaked in 0.1% polyethyleneimine, and the bound radioactivity was counted by liquid scintillation counting. […] Binding data were analyzed using GraphPad Prism software (version 10.2.3) and IC50 values (the concentration necessary to inhibit 50 percent of radioligand binding) and Ki values were calculated. […]

Series [1] in a line: Metabolism by UGTs in mouse liver microsomes (UDPGA). The format is in vitro ADME. The following applies: 3.07 μM, 0.5 mg/mL microsomes, alamethicin, 5 mM UDPGA, 37 °C, 60 min. The procedure: Next, we examined the level of glucuronidation of CycloAnt in mouse liver microsomes using a method described elsewhere. CycloAnt at a final concentration of 3.07 μM was premixed with 0.5 mg/mL liver microsomes and a channel-forming peptide antibiotic alamethicin at 0 °C. After 15 min, the glucuronidation was initiated by adding the UDP-glucuronosyl transferases (UGTs) substrate uridine-5’-diphospho-α-D-glucuronic acid (UDPGA) to a final concentration of 5 mM and the mixture was incubated at 37 °C [19]. At 0, 5, 15, 30, and 60 min, the incubation mixture was withdrawn and processed. The supernatant was collected and analyzed by LC-MS/MS.
Metabolism by UDP-glucuronosyl transferases (UGTs) in liver microsomes. CycloAnt dissolved in pH 7.2 PBS was diluted to 8 μM. Six hundred microliters of diluted CycloAnt, 800 μL of 0.975 mg/mL mouse liver microsomes, and 14 μL of 0.5 mM alamethicin containing 10 mM MgCl2, were mixed and preincubated on ice for 15 min. The reaction was then initiated by adding 74 μL of 100 mM uridine-5’-diphospho-α-D-glucuronic acid (UDPGA) and incubated at 37 °C for 0, 5, 15, 30, and 60 min. […] The dried sample was reconstituted in 100 μL of 20% acetonitrile and stored at −20 °C before analyzed by LC-MS/MS on the next day. […]
(Microsomes from liver hold many membrane-bound enzymes, among them those of drug oxidation.)

T1 sequence (P33535 whole entry): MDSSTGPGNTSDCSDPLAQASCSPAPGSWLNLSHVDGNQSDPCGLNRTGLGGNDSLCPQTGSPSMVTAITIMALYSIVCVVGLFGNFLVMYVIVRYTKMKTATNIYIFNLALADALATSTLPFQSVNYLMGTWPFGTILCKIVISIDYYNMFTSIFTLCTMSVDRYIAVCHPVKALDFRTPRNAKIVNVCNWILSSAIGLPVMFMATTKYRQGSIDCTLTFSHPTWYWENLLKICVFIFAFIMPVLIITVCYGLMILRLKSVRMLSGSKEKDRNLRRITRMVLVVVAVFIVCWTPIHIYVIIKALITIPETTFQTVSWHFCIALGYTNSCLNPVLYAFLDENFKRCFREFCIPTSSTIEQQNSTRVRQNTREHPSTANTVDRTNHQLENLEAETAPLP

Consider `C[C@@H](O)[C@@H]1NC(=O)[C@H](CNC(=O)c2ccccc2N)NC(=O)[C@H](NC(=O)[C@@H](N)Cc2ccc(O)cc2)CCCCNC(=O)CNC1=O` [CycloAnt] (H-Y[dK][Dap](2Abz)TG; lactam 2-C), for which, at rat MOR, the Ki (commonly a dissociation constant, usually derived from enzyme kinetics or from competition with a known ligand) was found to be 2.25 ± 0.44 nM. In addition, the “stability against glucuronidation in mouse liver microsomes (UGTs)” value in series [1] is “stable against glucuronidation”.

The values are drawn from article PMC11546339, “Conformational Plasticity Enhances the Brain Penetration of a Metabolically Stable, Dual-Functional Opioid-Peptide CycloAnt” (International Journal of Molecular Sciences, 2024).
